Reference: patent publication US20230089073A1 (Carmot Therapeutics, Inc., priority 2021, published 2023)
pEC50: −log10 of the molar value.

These compounds were tested against T1, human GLP-1 receptor (Homo sapiens, UniProt P43220) (assay: GLP-1R cAMP Assay). Conditions: cAMP accumulation in CHO cells stably overexpressing the human GLP-1 receptor; 30 min treatment; HitHunter cAMP kit; read-out: EC50.
T1 construct: expressed in transfected cells
Assay type: cell-based
In short: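 CHO cells stably overexpressing human GLP-1R, 10,000 cells/well, treated with compound in 20-point dose response in triplicate for 30 min. cAMP accumulation read by enzyme-complementation luminescence after lysis and overnight incubation; dose-response curves fitted.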

T1 sequence (P43220 24-463): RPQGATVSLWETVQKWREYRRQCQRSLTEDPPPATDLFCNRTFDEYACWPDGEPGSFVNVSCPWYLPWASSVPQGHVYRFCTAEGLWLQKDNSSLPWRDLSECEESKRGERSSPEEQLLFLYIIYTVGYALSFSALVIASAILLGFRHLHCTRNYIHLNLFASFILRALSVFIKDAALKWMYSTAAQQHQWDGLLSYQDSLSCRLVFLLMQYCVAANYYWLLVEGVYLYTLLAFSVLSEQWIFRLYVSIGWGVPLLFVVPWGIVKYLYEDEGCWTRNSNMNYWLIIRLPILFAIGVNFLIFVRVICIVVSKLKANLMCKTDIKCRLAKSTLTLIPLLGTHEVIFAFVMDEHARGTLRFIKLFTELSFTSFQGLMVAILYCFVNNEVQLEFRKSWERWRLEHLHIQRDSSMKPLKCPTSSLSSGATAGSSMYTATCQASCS

pEC50 | SMILES
> 7.30 | Cn1cncc1Cn1c(CN2CCC(Oc3cccc(COc4ccc(Cl)cc4Cl)c3)CC2)nc2ccc(C(=O)O)cc21 [Compound 255, 2-[(4-{3-[(2,4-dichlorophenoxy)methyl]phenoxy}piperidin-1-yl)methyl]-1-[(1-methyl-1H-imidazol-5-yl)methyl]-1H-1,3-benzodiazole-6-carboxylic acid]
< 6.30 | CCn1cncc1Cn1c(CN2CCN(C(=O)c3cccc(CN(C)c4ccc(C)cc4Cl)c3)CC2)nc2ccc(C(=O)O)cc21 [Compound 77, 2-{[4-(3-{[(2-chloro-4-methylphenyl)(methyl)amino]methyl}benzoyl)piperazin-1-yl]methyl}-1-[(1-ethyl-1H-imidazol-5-yl)methyl]-1H-1,3-benzodiazole-6-carboxylic acid]
> 7.30 | N#Cc1ccc(OCc2cccc(OC3CCN(Cc4nc5ccc(C(=O)O)cc5n4C[C@@H]4CCO4)CC3)n2)c(F)c1 [Example 285, (S)-2-((4-((6-((4-Cyano-2-fluorophenoxy)methyl)pyridin-2-yl)oxy)piperidin-1-yl)methyl)-1-(oxetan-2-ylmethyl)-1H-benzo[d]imidazole-6-carboxylic acid]
> 7.30 | C[C@H]1C[C@@H](Oc2ccnc(COc3ccc(Cl)cc3C#N)n2)CCN1Cc1nc2ccc(C(=O)O)cc2n1C[C@@H]1CCO1 [Compound 489, 2-{[(2S,4S)-4-({2-[(4-chloro-2-cyanophenoxy)methyl]pyrimidin-4-yl}oxy)-2-methylpiperidin-1-yl]methyl}-1-{[(2S)-oxetan-2-yl]methyl}-1H-1,3-benzodiazole-6-carboxylic acid]
6.30 to 7.30 | CCn1cncc1Cn1c(CN2CCN(C(=O)c3cccc(COc4ccc(C)cc4Cl)c3)CC2)nc2ccc(C(=O)O)cc21 [Compound 65, 2-[(4-{3-[(2-chloro-4-methylphenoxy)methyl]benzoyl}piperazin-1-yl)methyl]-1-[(1-ethyl-1H-imidazol-5-yl)methyl]-1H-1,3-benzodiazole-6-carboxylic acid]
6.30 to 7.30 | CN(C)c1cc(C(=O)N2CCN(Cc3nc4ccc(C(=O)O)cc4n3C[C@@H]3CCO3)CC2)ncn1 [Example 1, (S)-2-((4-(6-(Dimethylamino)pyrimidine-4-carbonyl)piperazin-1-yl)methyl)-1-(oxetan-2-ylmethyl)-1H-benzo[d]imidazole-6-carboxylic acid]
< 6.30 | COC(=O)c1ccc2nc(CN3CCN(C(=O)c4ccc(COc5cccc(Cl)c5C)o4)CC3)n(C[C@@H]3CCO3)c2c1 [Compound 24, methyl 2-[(4-{5-[(3-chloro-2-methylphenoxy)methyl]furan-2-carbonyl}piperazin-1-yl)methyl]-1-{[(2S)-oxetan-2-yl]methyl}-1H-1,3-benzodiazole-6-carboxylate]
> 7.30 | O=C(O)c1ccc2nc(CN3CCC(Oc4ccnc(COc5ccc(F)cc5Cl)n4)CC3)n(C[C@@H]3CCO3)c2n1 [Compound 370]
> 7.30 | Cn1cncc1Cn1c(CN2CCC(Oc3cccc(COc4ccc(Cl)cc4F)n3)CC2)nc2ccc(C(=O)O)cc21 [Compound 264, 2-{[4-({6-[(4-chloro-2-fluorophenoxy)methyl]pyridin-2-yl}oxy)piperidin-1-yl]methyl}-1-[(1-methyl-1H-imidazol-5-yl)methyl]-1H-1,3-benzodiazole-6-carboxylic acid]
> 7.30 | O=C(O)c1cc(F)c2nc(CN3CCC(Oc4ccnc(COc5ccc(F)cc5F)c4)CC3)n(C[C@@H]3CCO3)c2c1 [Compound 496, 2-{[4-({2-[(2,4-difluorophenoxy)methyl]pyridin-4-yl}oxy)piperidin-1-yl]methyl}-4-fluoro-1-{[(2S)-oxetan-2-yl]methyl}-1H-1,3-benzodiazole-6-carboxylic acid]
< 6.30 | O=C(O)c1ccc2nc(CN3CCN(C(=O)c4ccc(COc5ccc(Cl)cc5F)o4)CC3)n(C[C@@H]3CCO3)c2c1 [Example 36, (S)-2-((4-(5-((4-Chloro-2-fluorophenoxy)methyl)furan-2-carbonyl)-piperazin-1-yl)methyl)-1-(oxetan-2-ylmethyl)-1H-benzo[d]imidazole-6-carboxylic acid]
> 7.30 | Cc1ccc(OCc2cccc(CC3CCN(Cc4nc5ccc(C(=O)O)cc5n4C[C@@H]4CCO4)CC3)n2)c(C#N)c1 [Example 114, (S)-2-((4-((6-((2-Cyano-4-methylphenoxy)methyl)pyridin-2-yl)methyl)piperidin-1-yl)methyl)-1-(oxetan-2-ylmethyl)-1H-benzo[d]imidazole-6-carboxylic acid]
> 7.30 | O=C(O)c1ccc2nc(CN3CCC(Oc4ccnc(COc5ccc(Cl)cc5Cl)c4)CC3)n(C[C@@H](O)CCO)c2c1 [Compound 227, 2-{[4-({2-[(2,4-dichlorophenoxy)methyl]pyridin-4-yl}oxy)piperidin-1-yl]methyl}-1-[(2S)-2,4-dihydroxybutyl]-1H-1,3-benzodiazole-6-carboxylic acid]
> 7.30 | O=C(O)c1cc(F)c2nc(CN3CCC(Oc4ccnc(COc5ccc(C(F)F)cc5F)c4)CC3)n(C[C@@H]3CCO3)c2c1 [Compound 302]
> 7.30 | O=C(O)c1ccc2nc(CN3CCC(Oc4cccc(COc5cc(Cl)cc(Cl)c5)c4)CC3)n(C[C@@H]3CCO3)c2c1 [Compound 242, 2-[(4-{3-[(3,5-dichlorophenoxy)methyl]phenoxy}piperidin-1-yl)methyl]-1-{[(2S)-oxetan-2-yl]methyl}-1H-1,3-benzodiazole-6-carboxylic acid]
> 7.30 | O=C(O)c1ccc2nc(CN3CCC(Oc4cccc(COc5ccc(C(F)F)cc5F)c4)CC3)n(C[C@@H]3CCO3)c2c1 [Compound 301]

pEC50 | SMILES
6.30 to 7.30 | Cc1c(Cl)cccc1OCc1ccc(CN2CCN(Cc3nc4ccc(C(=O)O)cc4n3C[C@@H]3CCO3)CC2)o1 [Compound 8, 2-{[4-({5-[(3-chloro-2-methylphenoxy)methyl]furan-2-yl}methyl)piperzin-1-yl]methyl}-1-{[(2S)-oxetan-2-yl]methyl}-1H-1,3-benzodiazole-6-carboxylic acid]
> 7.30 | C[C@H]1C[C@@H](Oc2ccnc(COc3ccc(C(F)(F)F)cc3F)n2)CCN1Cc1nc2ccc(C(=O)O)nc2n1C[C@@H]1CCO1 [Compound 377]
< 6.30 | C[C@H](Oc1ccc(Cl)cc1Cl)c1ccc(C(=O)N2CCN(Cc3nc4ccc(C(=O)O)cc4n3C[C@@H]3CCO3)CC2)o1 (single isomer, unassigned) [Example 96]
< 6.30 | CCn1cncc1Cn1c(CN2CCN(C(=O)c3cccc(OCc4ccc(C#N)cc4F)c3)CC2)nc2ccc(C(=O)O)cc21 [Compound 67, 2-[(4-{3-[(4-cyano-2-fluorophenyl)methoxy]benzoyl}piperazin-1-yl)methyl]-1-[(1-ethyl-1H-imidazol-5-yl)methyl]-1H-1,3-benzodiazole-6-carboxylic acid]
< 6.30 | O=C(O)c1ccc2nc(CN3CCc4[nH]c5c(OCc6ccc(Cl)cc6F)cccc5c4C3)n(C[C@@H]3CCO3)c2c1 [Example 90, (S)-2-((6-((4-Chloro-2-fluorobenzyl)oxy)-1,3,4,5-tetrahydro-2H-pyrido[4,3-b]indol-2-yl)methyl)-1-(oxetan-2-ylmethyl)-1H-benzo[d]imidazole-6-carboxylic acid]
> 7.30 | O=C(O)c1ccc2nc(CN3CCC(Oc4ccnc(COc5ccc(Cl)cc5Cl)c4)CC3)n(Cc3ncco3)c2c1 [Compound 170, 2-{[4-({2-[(2,4-dichlorophenoxy)methyl]pyridin-4-yl}oxy)piperidin-1-yl]methyl}-1-[(1,3-oxazol-2-yl)methyl]-1H-1,3-benzodiazole-6-carboxylic acid]
> 7.30 | O=C(O)c1cc(F)c2nc(CN3CCC(Oc4cccc(COc5ccc(C(F)F)cc5F)c4)CC3)n(CC3(CF)CC3)c2c1 [Compound 303]
> 7.30 | O=C(O)c1cc(F)c2nc(CN3CCC(Oc4ccnc(COc5ccc(F)cc5Cl)n4)CC3)n(C[C@@H]3CCO3)c2c1 [Compound 329]
> 7.30 | COCCC1(Cn2c(CN3CCC(Oc4ccnc(COc5ccc(Cl)cc5F)c4)CC3)nc3ccc(C(=O)O)cc32)CC1 [Compound 354]
6.30 to 7.30 | O=C(O)c1ccc2nc(CN3CCN(C(=O)c4ccc(COc5ccc(C6CC6)cc5Cl)o4)CC3)n(C[C@@H]3CCO3)c2c1 [Compound 81, 2-[(4-{5-[(2-chloro-4-cyclopropylphenoxy)methyl]furan-2-carbonyl}piperazin-1-yl)methyl]-1-{[(2S)-oxetan-2-yl]methyl}-1H-1,3-benzodiazole-6-carboxylic acid]
> 7.30 | N#Cc1ccc(OCc2nccc(O[C@H]3C[C@H]4C[C@@H]3CN4Cc3nc4ccc(C(=O)O)cc4n3C[C@@H]3CCO3)n2)c(F)c1 [Compound 507, 2-{[(1R,4R,5S)-5-({2-[(4-cyano-2-fluorophenoxy)methyl]pyrimidin-4-yl}oxy)-2-azabicyclo[2.2.1]heptan-2-yl]methyl}-1-{[(2S)-oxetan-2-yl]methyl}-1H-1,3-benzodiazole-6-carboxylic acid]
> 7.30 | N#CCC1(Cn2c(CN3CCC(Oc4ccnc(COc5ccc(C#N)cc5F)n4)CC3)nc3c(F)cc(C(=O)O)cc32)CC1 [Compound 339]
> 7.30 | N#Cc1ccc(OCc2cc(OC3CCN(Cc4nc5c(F)cc(C(=O)O)cc5n4C[C@@H]4CCO4)CC3)ccn2)c(Cl)c1 [Compound 359]
> 7.30 | Cc1ccc(N(C)c2cccc(C(=O)N3CCN(Cc4nc5ccc(C(=O)O)cc5n4C[C@@H]4CCO4)CC3)c2)c(Cl)c1 [Compound 51, 2-[(4-{3-[(2-chloro-4-methylphenyl)(methyl)amino]benzoyl}piperazin-1-yl)methyl]-1-{[(2S)-oxetan-2-yl]methyl}-1H-1,3-benzodiazole-6-carboxylic acid]
< 6.30 | O=C(O)c1ccc2nc(CN3CCN(C(=O)c4ccc(COc5ccccc5)o4)CC3)n(C[C@@H]3CCO3)c2c1 [Compound 30, 1-{[(2S)-oxetan-2-yl]methyl}-2-({4-[5-(phenoxymethyl)furan-2-carbonyl]piperazin-1-yl}methyl)-1H-1,3-benzodiazole-6-carboxylic acid]
